How the values were obtained:
[1] = target: recombinant BACE1 protein (Homo sapiens, UniProt P56817); experiment: Biochemical FRET based assay; details: recombinant BACE1 1 μg/ml, 120 minutes at room temperature, pH 5.0; for IC50: read-out: Biochemical FRET based assay pIC50 (converted)
Outline: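 Recombinant BACE1 (1 μg/ml final) was incubated 120 minutes at room temperature with […] Mca/Dnp-labelled 13-mer APP Swedish-mutant peptide in 40 mM citrate pH 5.0, 0.04% PEG, 4% DMSO, with or without compound. Cleavage was measured as fluorescence (ex 320/em 405 nm), given as RFU difference between T120 and T0.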

[2] = tested on: Abeta total; experiment: Cellular αLisa assay in SKNBE2 cells, Abeta total; assay type: cell-based, human; details: incubated for 18 hours; for IC50: Homo sapiens, SKNBE2, 18 h, read-out: Cellular αLisa assay in SKNBE2 cells Abetatotal pIC50 (converted)
Outline: (§1)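 Human neuroblastoma SKNBE2 cells expressing wild-type hAPP695 were incubated with compound for 18 hours. Secreted Abeta total and Abeta 1-42 in medium were quantified by sandwich αLisa: biotinylated AbN/25 on streptavidin donor beads with Ab4G8 (total) or cAb42/26 (1-42) acceptor beads. Light emission read after 1 hour (ex 650 nm, em 615 nm).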

[3] = tested on: Abeta 1-42; experiment: Cellular αLisa assay in SKNBE2 cells, Abeta 1-42; assay type: cell-based, human; details: incubated for 18 hours; for IC50: Homo sapiens, SKNBE2, 18 h, read-out: Cellular αLisa assay in SKNBE2 cells Abeta 42 pIC50 (converted)
Outline: as §1

Sequence of recombinant BACE1 protein (P56817 46-501): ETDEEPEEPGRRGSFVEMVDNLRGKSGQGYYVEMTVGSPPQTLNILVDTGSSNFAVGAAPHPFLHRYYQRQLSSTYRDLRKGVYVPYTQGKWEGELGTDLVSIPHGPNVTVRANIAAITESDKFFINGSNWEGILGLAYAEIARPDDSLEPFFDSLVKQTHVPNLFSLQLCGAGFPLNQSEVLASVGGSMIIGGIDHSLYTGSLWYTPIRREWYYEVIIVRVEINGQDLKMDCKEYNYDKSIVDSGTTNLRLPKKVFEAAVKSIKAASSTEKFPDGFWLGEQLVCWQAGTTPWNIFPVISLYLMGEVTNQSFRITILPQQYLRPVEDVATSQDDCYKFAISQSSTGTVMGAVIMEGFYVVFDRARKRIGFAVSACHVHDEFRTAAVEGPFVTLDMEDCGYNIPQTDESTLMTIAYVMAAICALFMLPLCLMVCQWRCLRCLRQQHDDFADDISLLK

| SMILES | IC50 [1] [nM] | Cellular αLisa assay in SKNBE2 cells Abetatotal pIC50 [2] | Cellular αLisa assay in SKNBE2 cells Abeta 42 pIC50 [3] | IC50 [2] [nM] | IC50 [3] [nM] | Biochemical FRET based assay pIC50 [1] |
| --- | --- | --- | --- | --- | --- | --- |
| CC1(c2cccc(-c3cncnc3)c2)N=C(N)COC1F (single isomer, unassigned) [Compound 95] | 1410 | 6.5 | 6.48 | – | – | – |
| C[C@]1(c2cc(NC(=O)c3ncc(C#N)cc3Cl)ccc2F)N=C(N)CO[C@H]1C(F)(F)F [Compound 308] | 49 | – | – | 6.17 | 6.31 | – |
| CC1(c2cc(-c3cncnc3)ccc2F)N=C(N)COC1C(F)(F)F (single isomer, unassigned) [Compound 238] | 832 | 6.66 | 6.65 | – | – | – |
| Cc1cc(Br)cnc1C(=O)Nc1cccc([C@@]2(C3CC3)N=C(N)CO[C@H]2F)c1 [Compound 272] | 91.2 | – | – | 35.5 | 36.3 | – |
| NC1=N[C@@](c2cc(NC(=O)c3ncc(Cl)cc3F)ccc2F)(C2CC2)[C@H](F)OC1 [Compound 220] | 468 | – | – | 347 | 355 | – |
| CC1(c2cc(NC(=O)c3ccc(F)cn3)ccc2F)COCC(N)=N1 (stereo not drawn) [Compound 25] | – | 7.9 | 7.93 | – | – | 6.93 |
| COc1cnc(C(=O)Nc2cccc(C3(C)N=C(N)COC3(F)C(F)(F)F)c2)cn1 (single isomer, unassigned) [Compound 179] | > 30200 | <5 | <5 | – | – | – |
| CC1(c2cc(NC(=O)c3cnc(C(F)(F)F)cn3)ccc2F)COCC(N)=N1 (stereo not drawn) [Compound 22] | – | 7.663 | 7.59 | – | – | 6.7 |
| Cc1cnc(C(=O)Nc2ccc(F)c([C@]3(C)COCC(N)=N3)c2)cn1 [Compound 40] | – | 7.32 | 7.31 | – | – | 6.04 |
| CC1(c2cc(-c3cccc(C(F)(F)F)c3)c(F)cc2F)COCC(N)=N1 (stereo not drawn) [Compound 31] | – | 5.86 | 5.76 | – | – | 4.76 |
| COc1cncc(-c2cccc(C3(C)N=C(N)COC3C(F)(F)F)c2)c1 (single isomer, unassigned) [Compound 102] | > 30200 | <5 | <5 | – | – | – |
| CC1(c2cc(NC(=O)c3ccc(Cl)cc3F)ccc2F)COCC(N)=N1.Cl (stereo not drawn) [Compound 27] | – | 7.04 | 7.06 | – | – | 6.35 |
| CC1(c2cc(NC(=O)c3cnc(C(F)(F)F)cn3)ccc2F)COCC(N)=N1 (stereo not drawn) [Compound 147] | – | 7.6 | 7.59 | – | – | 6.7 |
| N#Cc1ccc(C(=O)Nc2cccc(C3(C4CC4)N=C(N)COC3(F)C(F)(F)F)c2)nc1 (stereo not drawn) [Compound 198] | – | 6.69 | 6.7 | – | – | 6.52 |
| N#Cc1cnc(C(=O)Nc2cccc([C@@]3(C4CC4)N=C(N)CO[C@H]3F)c2)c(Cl)c1 [Compound 309] | 219 | – | – | 72.4 | 74.1 | – |
| NC1=N[C@@](c2cccc(NC(=O)c3cnc(OCC(F)(F)F)cn3)c2)(C2CC2)[C@H](F)OC1 [Compound 274] | 263 | – | – | 120 | 120 | – |
| COc1cncc(-c2ccc(F)c(C3(C)COCC(N)=N3)c2)c1 (single isomer, unassigned) [Compound 156] | – | 7.1 | 7.02 | – | – | 5.69 |
| NC1=N[C@@](c2cccc(-c3cncnc3)c2)(C2CC2)[C@@H](F)OC1 [Compound 257] | 891 | – | – | 977 | 1020 | – |
| COc1cncc(-c2cccc(C3(C)N=C(N)COC3C(F)(F)F)c2)c1 (single isomer, unassigned) [Compound 104] | 9330 | 5.82 | 5.8 | – | – | – |
| CC1(c2cc(-c3cncnc3)ccc2F)COCC(N)=N1 (racemic) [Compound 58] | – | 6.68 | 6.7 | – | – | 5.11 |
| CC1(c2cccc(NC(=O)c3ccncn3)c2)N=C(N)COC1(F)C(F)(F)F (single isomer, unassigned) [Compound 188] | 437 | 6.93 | 6.91 | – | – | – |
| CC1(c2cccc(-c3cncnc3)c2)N=C(N)COC1(F)C(F)(F)F (single isomer, unassigned) [Compound 140] | > 30200 | <5 | <5 | – | – | – |
| Cc1ccc(C(=O)Nc2cccc(C3(C)N=C(N)COC3(F)C(F)(F)F)c2)nc1 (single isomer, unassigned) [Compound 192] | > 30200 | <5 | <5 | – | – | – |
| C[C@]1(c2ccnc(-c3cc(Cl)cc(Cl)c3)c2)N=C(N)CO[C@@H]1F (single isomer, unassigned) [Compound 277, (5R*,6R*)-5-[2-(3,5-dichlorophenyl)pyridin-4-yl]-6-fluoro-5-methyl-5,6-dihydro-2H-1,4-oxazin-3-amine] | 219 | – | – | 112 | 107 | – |

Continued, values first:

| IC50 [1] [nM] | Cellular αLisa assay in SKNBE2 cells Abetatotal pIC50 [2] | Cellular αLisa assay in SKNBE2 cells Abeta 42 pIC50 [3] | IC50 [2] [nM] | IC50 [3] [nM] | Biochemical FRET based assay pIC50 [1] | SMILES |
| --- | --- | --- | --- | --- | --- | --- |
| 81.3 | – | – | 145 | 170 | – | Cc1cc(Cl)cnc1C(=O)Nc1ccc(F)c([C@@]2(C3CC3)N=C(N)CO[C@@H]2F)c1 [Compound 315] |
| – | 6.29 | 6.29 | – | – | 6.01 | C[C@@]1(c2cc(-c3cncnc3)c(F)cc2F)N=C(N)CO[C@H]1F (racemic) [Compound 83, trans-rac-5-(2,4-difluoro-5-pyrimidin-5-ylphenyl)-6-fluoro-5-methyl-5,6-dihydro-2H-1,4-oxazin-3-amine] |
| 2090 | 6.35 | 6.38 | – | – | – | COc1cncc(-c2cccc(C3(C)N=C(N)COC3C(F)(F)F)c2)c1 (single isomer, unassigned) [Compound 103] |
| – | 5.55 | 5.45 | – | – | 4.67 | COc1cccc(-c2cc([C@]3(C)COCC(N)=N3)c(F)cc2F)n1.Cl [Compound 145] |
| – | 6.67 | 6.67 | – | – | 6.11 | CC1(c2cc(NC(=O)c3ccc(Cl)s3)ccc2F)COCC(N)=N1 (stereo not drawn) [Compound 29] |
| 35.5 | 7.52 | 7.54 | – | – | – | COc1cnc(C(=O)Nc2cccc(C3(C)N=C(N)COC3F)c2)cn1 (single isomer, unassigned) [Compound 131] |
| 8910 | – | – | 1200 | 1230 | – | CC1(c2cc(-c3cncnc3)c(F)cc2F)N=C(N)COC1F (single isomer, unassigned) [Compound 81] |
| 1100 | 6.38 | 6.35 | – | – | – | COc1cnc(C(=O)Nc2cccc(C3(C)N=C(N)COC3F)c2)cn1 (single isomer, unassigned) [Compound 132] |
| 219 | – | – | 81.3 | 89.1 | – | NC1=N[C@@](c2cccc(NC(=O)c3ncc(Cl)cc3F)c2)(C2CC2)[C@H](F)OC1 [Compound 249, (2S,3R)—N-[3-(5-amino-3-cyclopropyl-2-fluoro-3,6-dihydro-2H-1,4-oxazin-3-yl)phenyl]-5-chloro-3-fluoropyridine-2-carboxamide] |
| > 30200 | – | – | > 10000 | > 10000 | – | COc1cnc(C(=O)Nc2cccc(C3(C)COC(F)(C(F)(F)F)C(N)=N3)c2)cn1 (single isomer, unassigned) [Compound 158] |
| – | 5.58 | 5.54 | – | – | 5.05 | CC1(c2cc(-c3ccc(Cl)cc3)c(F)cc2F)COCC(N)=N1 (stereo not drawn) [Compound 34] |
| – | 7.86 | 7.82 | – | – | 7.03 | C[C@@]1(c2cccc(NC(=O)c3ccc(Cl)cn3)c2)N=C(N)CO[C@H]1F (racemic) [Compound 91, trans-rac-N-[3-(5-amino-2-fluoro-3-methyl-3,6-dihydro-2H-1,4-oxazin-3-yl)phenyl]-5-chloropyridine-2-carboxamide] |
| 40.7 | 8.05 | 8.01 | – | – | – | CC1(c2cccc(NC(=O)c3ncc(Cl)cc3F)c2)N=C(N)COC1F (single isomer, unassigned) [Compound 163] |
| 42.7 | – | – | 26.3 | 28.8 | – | NC1=N[C@@](c2cccc(NC(=O)c3ncc(Cl)cc3Cl)c2)(C2CC2)[C@@H](F)OC1 [Compound 256] |
